We go through 5 compounds from patent US11981658B2, “Substituted aminopyridine compounds as EGFR inhibitors” (YUHAN CORPORATION, priority 2021, dated 2024).

Where two headings read alike, the source gives them in different places. Where only a bound is given, the exact number is not on record here.

The target of experiment [1] is EGFR Del19/T790M/C797S (Homo sapiens, UniProt P00533, C797S/DEL746-750/T790M). Description: Biochemical EGFR kinase inhibition assay (Lance Ultra TR-FRET), triple mutant del19/T790M/C797S. The essentials: (§1)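 In this biochemical assay, phosphorylation after a one-hour room-temperature reaction was detected with europium-labelled anti-phosphopeptide antibody at 2 nM final concentration.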
Sequence of EGFR Del19/T790M/C797S (P00533 with tags, fused parts or gaps DEL746-750/T790M/C797S): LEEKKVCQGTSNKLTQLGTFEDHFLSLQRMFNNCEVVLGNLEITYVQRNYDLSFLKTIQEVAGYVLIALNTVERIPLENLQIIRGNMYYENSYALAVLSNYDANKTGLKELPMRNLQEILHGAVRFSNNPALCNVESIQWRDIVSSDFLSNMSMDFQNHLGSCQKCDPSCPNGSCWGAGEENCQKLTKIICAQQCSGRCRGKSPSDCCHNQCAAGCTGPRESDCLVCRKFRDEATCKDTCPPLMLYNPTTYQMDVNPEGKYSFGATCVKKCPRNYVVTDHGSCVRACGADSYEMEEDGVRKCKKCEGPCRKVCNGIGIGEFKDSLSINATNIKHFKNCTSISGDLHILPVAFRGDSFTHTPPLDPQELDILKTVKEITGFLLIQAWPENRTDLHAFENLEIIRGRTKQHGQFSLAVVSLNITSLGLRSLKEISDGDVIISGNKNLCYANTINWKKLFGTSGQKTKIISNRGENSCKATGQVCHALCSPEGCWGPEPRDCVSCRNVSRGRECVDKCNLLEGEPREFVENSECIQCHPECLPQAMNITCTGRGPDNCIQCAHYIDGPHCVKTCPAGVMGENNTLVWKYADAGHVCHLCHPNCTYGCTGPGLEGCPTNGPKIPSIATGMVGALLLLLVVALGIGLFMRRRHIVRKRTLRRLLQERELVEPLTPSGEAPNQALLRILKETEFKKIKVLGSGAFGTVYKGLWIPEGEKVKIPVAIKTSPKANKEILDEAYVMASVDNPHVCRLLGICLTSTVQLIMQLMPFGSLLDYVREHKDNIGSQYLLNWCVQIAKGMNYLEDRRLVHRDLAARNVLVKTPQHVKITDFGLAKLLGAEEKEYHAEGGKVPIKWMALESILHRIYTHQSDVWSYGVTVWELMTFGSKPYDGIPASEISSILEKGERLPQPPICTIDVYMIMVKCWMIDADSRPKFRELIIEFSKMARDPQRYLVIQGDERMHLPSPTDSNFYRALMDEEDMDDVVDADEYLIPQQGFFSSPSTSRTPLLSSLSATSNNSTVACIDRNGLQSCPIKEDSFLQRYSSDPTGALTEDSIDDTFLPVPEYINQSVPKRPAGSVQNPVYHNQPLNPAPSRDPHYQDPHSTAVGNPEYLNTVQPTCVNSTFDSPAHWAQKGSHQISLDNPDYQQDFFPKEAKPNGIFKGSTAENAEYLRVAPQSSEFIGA
(In TR-FRET formats the signal depends on donor and acceptor labels being close together.)

Experiment [2] has as its target EGFR L858R/T790M/C797S (Homo sapiens, UniProt P00533, C797S/L858R/T790M). Description: Biochemical EGFR kinase inhibition assay (Lance Ultra TR-FRET), triple mutant L858R/T790M/C797S. In outline: as §1
The target in experiment [3] is EGFR Del19/C797S (Homo sapiens, UniProt P00533, C797S/DEL746-750). Description: Biochemical EGFR kinase inhibition assay (Lance Ultra TR-FRET), double mutant del19/C797S. In outline: as §1
Sequence of EGFR Del19/C797S (P00533 with tags, fused parts or gaps DEL746-750/C797S): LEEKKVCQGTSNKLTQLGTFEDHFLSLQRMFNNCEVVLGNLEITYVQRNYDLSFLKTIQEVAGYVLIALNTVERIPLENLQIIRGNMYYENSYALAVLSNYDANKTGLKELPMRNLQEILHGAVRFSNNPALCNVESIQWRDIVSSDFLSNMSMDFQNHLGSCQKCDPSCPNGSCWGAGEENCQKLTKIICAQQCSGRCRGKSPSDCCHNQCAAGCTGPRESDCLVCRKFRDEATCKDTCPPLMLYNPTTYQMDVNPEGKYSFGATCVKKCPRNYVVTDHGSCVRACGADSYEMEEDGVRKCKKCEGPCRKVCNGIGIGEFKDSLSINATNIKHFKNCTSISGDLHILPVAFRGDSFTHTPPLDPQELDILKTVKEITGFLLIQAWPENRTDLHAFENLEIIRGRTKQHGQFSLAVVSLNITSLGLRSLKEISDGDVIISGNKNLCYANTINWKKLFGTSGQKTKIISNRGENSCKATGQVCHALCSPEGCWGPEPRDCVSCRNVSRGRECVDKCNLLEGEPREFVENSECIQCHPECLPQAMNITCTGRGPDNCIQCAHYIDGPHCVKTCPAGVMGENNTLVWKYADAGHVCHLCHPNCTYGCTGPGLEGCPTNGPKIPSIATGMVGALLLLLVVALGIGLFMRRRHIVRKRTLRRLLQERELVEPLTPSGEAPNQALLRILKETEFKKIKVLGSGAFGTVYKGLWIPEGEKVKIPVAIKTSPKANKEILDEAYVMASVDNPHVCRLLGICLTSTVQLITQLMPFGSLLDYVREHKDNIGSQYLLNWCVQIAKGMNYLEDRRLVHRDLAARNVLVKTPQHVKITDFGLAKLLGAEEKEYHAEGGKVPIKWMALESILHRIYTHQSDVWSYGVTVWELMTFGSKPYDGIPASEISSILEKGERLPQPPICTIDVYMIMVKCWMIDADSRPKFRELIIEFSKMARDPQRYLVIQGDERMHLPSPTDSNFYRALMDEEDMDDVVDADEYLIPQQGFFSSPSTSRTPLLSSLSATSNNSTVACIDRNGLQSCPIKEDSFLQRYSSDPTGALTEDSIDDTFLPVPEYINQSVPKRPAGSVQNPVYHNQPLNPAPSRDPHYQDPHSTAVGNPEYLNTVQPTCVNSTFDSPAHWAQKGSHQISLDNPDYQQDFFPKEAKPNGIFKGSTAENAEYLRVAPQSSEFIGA
Experiment [4] addresses EGFR L858R/C797S (Homo sapiens, UniProt P00533, C797S/L858R). Description: Biochemical EGFR kinase inhibition assay (Lance Ultra TR-FRET), double mutant L858R/C797S. In outline:
as §1

The target in experiment [5] is EGFR wildtype (WT) (Homo sapiens, UniProt P00533). Description: Biochemical EGFR kinase inhibition assay (Lance Ultra TR-FRET), wildtype. The essentials:
as §1

[6] abbreviates: IC50 Del19/T790M/C797S (nM), 100 μM ATP.
The mark [7] stands for this setting: IC50 L858R/T790M/C797S (nM), 100 μM ATP.
[8] abbreviates: IC50 Del19/C797S (nM), 100 μM ATP.
[9] abbreviates: IC50 L858R/C797S (nM), 100 μM ATP.

Sequence of EGFR L858R/C797S (P00533 25-1210 C797S/L858R): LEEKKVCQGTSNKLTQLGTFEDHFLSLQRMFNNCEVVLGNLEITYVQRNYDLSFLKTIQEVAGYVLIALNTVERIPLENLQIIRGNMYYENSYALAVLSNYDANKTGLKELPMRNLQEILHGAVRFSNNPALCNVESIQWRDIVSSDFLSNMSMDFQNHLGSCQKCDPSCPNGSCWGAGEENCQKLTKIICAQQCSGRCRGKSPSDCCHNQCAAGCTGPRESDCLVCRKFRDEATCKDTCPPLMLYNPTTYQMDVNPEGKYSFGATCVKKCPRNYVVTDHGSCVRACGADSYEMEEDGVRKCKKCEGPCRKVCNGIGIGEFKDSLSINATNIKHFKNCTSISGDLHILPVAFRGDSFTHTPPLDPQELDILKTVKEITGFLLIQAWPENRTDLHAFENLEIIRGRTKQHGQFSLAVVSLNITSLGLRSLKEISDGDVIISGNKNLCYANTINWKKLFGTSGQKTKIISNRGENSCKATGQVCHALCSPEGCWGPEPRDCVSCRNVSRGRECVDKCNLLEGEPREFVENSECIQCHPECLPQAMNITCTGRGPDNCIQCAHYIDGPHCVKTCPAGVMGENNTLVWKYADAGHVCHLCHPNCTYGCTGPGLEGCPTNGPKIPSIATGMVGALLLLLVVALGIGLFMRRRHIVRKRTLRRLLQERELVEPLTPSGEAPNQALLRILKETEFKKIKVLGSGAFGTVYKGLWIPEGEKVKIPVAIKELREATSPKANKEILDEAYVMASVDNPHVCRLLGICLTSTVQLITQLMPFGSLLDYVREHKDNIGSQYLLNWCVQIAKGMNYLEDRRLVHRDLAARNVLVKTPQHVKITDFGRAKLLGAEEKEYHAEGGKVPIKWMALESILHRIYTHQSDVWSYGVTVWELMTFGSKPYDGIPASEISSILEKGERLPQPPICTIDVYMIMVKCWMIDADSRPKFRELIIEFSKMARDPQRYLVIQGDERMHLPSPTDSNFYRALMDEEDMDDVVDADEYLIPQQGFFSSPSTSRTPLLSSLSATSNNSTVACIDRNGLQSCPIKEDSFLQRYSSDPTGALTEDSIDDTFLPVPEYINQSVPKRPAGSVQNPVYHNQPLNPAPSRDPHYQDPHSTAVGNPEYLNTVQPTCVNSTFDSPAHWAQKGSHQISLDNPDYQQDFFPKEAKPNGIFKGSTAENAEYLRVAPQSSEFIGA
Sequence of EGFR L858R/T790M/C797S (P00533 25-1210 T790M/C797S/L858R): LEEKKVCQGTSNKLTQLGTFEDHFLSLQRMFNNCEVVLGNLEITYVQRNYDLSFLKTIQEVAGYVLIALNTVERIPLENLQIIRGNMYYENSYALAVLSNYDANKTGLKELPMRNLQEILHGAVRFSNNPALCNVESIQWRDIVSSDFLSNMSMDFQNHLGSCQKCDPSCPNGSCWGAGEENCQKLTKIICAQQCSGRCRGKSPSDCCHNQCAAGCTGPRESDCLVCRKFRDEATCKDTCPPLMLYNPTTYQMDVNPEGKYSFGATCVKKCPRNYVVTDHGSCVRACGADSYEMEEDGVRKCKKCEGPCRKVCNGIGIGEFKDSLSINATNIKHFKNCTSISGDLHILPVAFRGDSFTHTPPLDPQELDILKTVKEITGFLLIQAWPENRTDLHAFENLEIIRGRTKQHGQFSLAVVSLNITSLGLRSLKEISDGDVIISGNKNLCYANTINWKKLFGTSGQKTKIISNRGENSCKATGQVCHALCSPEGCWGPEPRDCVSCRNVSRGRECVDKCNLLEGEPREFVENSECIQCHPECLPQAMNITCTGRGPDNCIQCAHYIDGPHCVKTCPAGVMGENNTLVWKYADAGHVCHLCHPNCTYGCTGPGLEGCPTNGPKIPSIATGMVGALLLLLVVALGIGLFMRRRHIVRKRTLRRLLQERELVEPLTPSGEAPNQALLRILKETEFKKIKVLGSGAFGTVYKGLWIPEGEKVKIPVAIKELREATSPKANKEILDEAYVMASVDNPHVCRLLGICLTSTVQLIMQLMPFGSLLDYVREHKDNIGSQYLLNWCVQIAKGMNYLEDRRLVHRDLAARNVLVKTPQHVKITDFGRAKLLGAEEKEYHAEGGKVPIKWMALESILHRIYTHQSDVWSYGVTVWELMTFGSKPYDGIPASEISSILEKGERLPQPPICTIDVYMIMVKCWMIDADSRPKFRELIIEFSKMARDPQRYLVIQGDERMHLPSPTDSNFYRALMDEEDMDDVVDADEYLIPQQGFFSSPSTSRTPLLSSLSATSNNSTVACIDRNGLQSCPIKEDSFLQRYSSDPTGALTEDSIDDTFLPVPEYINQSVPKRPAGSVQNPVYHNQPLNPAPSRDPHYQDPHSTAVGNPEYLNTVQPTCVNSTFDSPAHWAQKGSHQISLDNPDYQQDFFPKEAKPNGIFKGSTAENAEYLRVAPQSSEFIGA

Regarding `CC(C)(C#Cc1cnc(Nc2ccnc(-c3cnn(S(=O)(=O)C4CC4)c3)n2)cc1N[C@H]1CC[C@@H](O)CC1)N1CCOCC1` [Example 230, (1s,4s)-4-((2-((2-(1-(Cyclopropylsulfonyl)-1H-pyrazol-4-yl)pyrimidin-4-yl)amino)-5-(3-methyl-3-morpholinobut-1-yn-1-yl)pyridin-4-yl)amino)cyclohexan-1-ol], the IC50 in experiment [1] (setting [6]) was 5.9 nM; in experiment [2] (setting [7]), 18.2 nM; in experiment [3] (setting [8]), 1720 nM; in experiment [4] (setting [9]), 813 nM; in experiment [5] (IC50 WT (nM), 100 μM ATP) it was above 10000 nM.
With `CN1CCC(n2cc(C#Cc3cnc(Nc4ccnc(-c5cnn(S(=O)(=O)C6CC6)c5)n4)cc3N3CCC(C)(CO)CC3)cn2)CC1` [Example 147, (1-(2-((2-(1-(Cyclopropylsulfonyl)-1H-pyrazol-4-yl)pyrimidin-4-yl)amino)-5-((1-(1-methylpiperidin-4-yl)-1H-pyrazol-4-yl)ethynyl)pyridin-4-yl)-4-methylpiperidin-4-yl)methanol], the IC50 in experiment [1] (setting [6]) is 0.4 nM; in experiment [1] (Km ATP, read-out: IC50 Del19/T790M/C797S (nM) Km ATP) it was 0.2 nM; in experiment [2] (setting [7]) it was 0.2 nM; in experiment [2] (Km ATP, read-out: IC50 L858R/T790M/C797S (nM) Km ATP), 0.1 nM; in experiment [3] (setting [8]), 0.4 nM; in experiment [3] (Km ATP, read-out: IC50 Del19/C797S (nM) Km ATP), 0.2 nM. The IC50 in experiment [4] (setting [9]) came out at 0.7 nM; in experiment [4] (Km ATP, read-out: IC50 L858R/C797S (nM) Km ATP), 0.2 nM; in experiment [5] (IC50 WT (nM), 100 μM ATP), 43.3 nM; in experiment [5] (Km ATP, read-out: IC50 WT (nM) Km ATP), 0.4 nM.
As for `CN1CCN(Cc2ccc(C#Cc3cnc(Nc4ccnc(-c5cnn(S(=O)(=O)C6CC6)c5)n4)cc3NC[C@H]3CC[C@H](O)CC3)cc2)CC1` [Example 361, (1 r,4r)-4-(((2-((2-(1-(Cyclopropylsulfonyl)-1H-pyrazol-4-yl)pyrimidin-4-yl)amino)-5-((4-((4-methylpiperazin-1-yl)methyl)phenyl)ethynyl)pyridin-4-yl)amino)methyl)cyclohexan-1-ol], the IC50 was 0.7 nM in experiment [1] (setting [6]); 1.5 nM in experiment [2] (setting [7]); 4.3 nM in experiment [3] (setting [8]); 468 nM in experiment [4] (setting [9]); above 10000 nM in experiment [5] (IC50 WT (nM), 100 μM ATP).
`O=C(c1ccc(C#Cc2cnc(Nc3ccnc(-c4cnn(S(=O)(=O)C5CC5)c4)n3)cc2NC[C@H]2CC[C@H](CO)CC2)cc1)N1CCC(O)CC1` [Example 443, (4-((6-((2-(1-(Cyclopropylsulfonyl)-1H-pyrazol-4-yl)pyrimidin-4-yl)amino)-4-((((1 r,4r)-4-(hydroxymethyl)cyclohexyl)methyl)amino)pyridin-3-yl)ethynyl)phenyl)(4-hydroxypiperidin-1-yl)methanone]: the IC50 came out at 7.7 nM in experiment [1] (setting [6]); 4.3 nM in experiment [1] (Km ATP, read-out: IC50 Del19/T790M/C797S (nM), Km ATP); 4 nM in experiment [2] (setting [7]); 1.2 nM in experiment [2] (Km ATP, read-out: IC50 L858R/T790M/C797S (nM), Km ATP); 53.5 nM in experiment [3] (setting [8]); 4610 nM in experiment [4] (setting [9]). In experiment [5] (IC50 WT (nM), 100 μM ATP), this compound showed an IC50 above 10000 nM.
For `O=S(=O)(C1CC1)n1cc(-c2nccc(Nc3cc(N[C@H]4CC[C@@H](O)CC4)c(C#CC4(O)CCCCC4)cn3)n2)cn1` [Example 174, 1-((6-((2-(1-(Cyclopropylsulfonyl)-1H-pyrazol-4-yl)pyrimidin-4-yl)amino)-4-(((1 s, 4s)-4-hydroxycyclohexyl)amino)pyridin-3-yl)ethynyl)cyclohexan-1-ol], the IC50 in experiment [1] (ATP at Km, read-out: IC50 Del19/T790M/C797S (nM), Km ATP) came out at 0.5 nM; in experiment [1] (setting [6]), 0.9 nM; in experiment [2] (ATP at Km, read-out: IC50 L858R/T790M/C797S (nM), Km ATP) it was 1.2 nM; in experiment [2] (setting [7]) it was 2.1 nM; in experiment [3] (ATP at Km, read-out: IC50 Del19/C797S (nM), Km ATP) it was 11 nM; in experiment [3] (setting [8]), 10.8 nM. The IC50 in experiment [4] (ATP at Km, read-out: IC50 L858R/C797S (nM), Km ATP) is 30.5 nM; in experiment [4] (setting [9]), 283 nM; in experiment [5] (ATP at Km, read-out: IC50 WT (nM), Km ATP) it was 150 nM; in experiment [5] (IC50 WT (nM), 100 μM ATP), above 10000 nM.
